Source: patent publication EP0791044B1, “HYDROPHOBIC PEROXYACID BLEACH PRECURSOR COMPOSITIONS STABILISED WITH A WATER SOLUBLE CARBOXYLIC ACID” (THE PROCTER & GAMBLE COMPANY, priority 1994, dated 1996)

Experiment: Beaker Perhydrolysis Test (Sotax Dissolution Tester) of model detergent formulation containing the precursor material
Assay type: physicochemical
Conditions: for peroxyacid yield: percent of the theoretically available weight of peracid
Procedure: For the purpose of the present invention, unrestrained dissolution conditions are defined as those existing in the Beaker Perhydrolysis Test as carried out using a Sotax Dissolution Tester Model AT6 supplied by Sotax AG CH-4008 BASEL Switzerland. This Apparatus comprises an array of polycarbonate beakers, each capable of holding 1 litre of water, supported in a thermostatically controlled water bath. Each beaker is provided with a paddle stirrer whose speed can be controlled.
Add 5ml potassium iodide solution to the first titration beaker. • 7- Take a 10ml aliquot from Sotax beaker No. 1 and discharge into the first titration beaker at t=1 minute. • 8- Add the second sample to Sotax beaker No.2 at t= 1 minute and add 5 ml potassium iodide to a second titration beaker. • 9- Titrate the first aliquot against 0.005 M sodium thiosulphate solution until the solution is first decolourised (The colour is slowly regenerated as the solution warms and the perhydrate reacts with the iodide). • 10- Take a 10 ml aliquot from Sotax beaker No.2 at t= 2 minutes and discharge into the second titration beaker and repeat step . • 11- Take further aliquots at the following times (t= minutes)
The aliquots from Beaker No. 1 at 1 minute and from Beaker No. 2 at 2 minutes constitutes replicates and the results are averaged to give a figure from which the % perhydrolysis is calculated.
Material from each example was then incorporated into a model detergent formulation having the composition in % by weight.
The four formulations were then subjected to a Beaker Perhydrolysis Test as hereinbefore described and gave the peroxyacid yields shown in Table 1. Results are given for 1, 3, 5 & 10 minutes elapsed time and are expressed in percent of the theoretically available weight of peracid.

Row | Compound | peroxyacid yield (3 minutes from start of perhydrolysis, Temperature = 30°C, hard water (25° Clarck)) | peroxyacid yield (5 minutes from start of perhydrolysis, Temperature = 30°C, hard water (25° Clarck)) | peroxyacid yield (10 minutes from start of perhydrolysis, Temperature = 30°C, hard water (25° Clarck)) | perhydrolysis rate (effect of agglomeration with citric acid versus raw material form, 40°C) | peroxyacid yield (1 minute from start of perhydrolysis, Temperature = 40°C, water 12° Clark) | peroxyacid yield (3 minutes from start of perhydrolysis, Temperature = 40°C, water 12° Clark) | peroxyacid yield (5 minutes from start of perhydrolysis, Temperature = 40°C, water 12° Clark) | peroxyacid yield (10 minutes from start of perhydrolysis, Temperature = 40°C, water 12° Clark)
1 | CCCCCCCCCC(=O)NCCCCCC(=O)Oc1ccc(S(=O)(=O)O)cc1 [C10 oxybenzenesulfonate (raw material), (6-decanamido-caproyl) oxybenzenesulfonate] | 25% | 31% | 34% | – | – | – | – | –
2 | benzoyl caprolactam [3 (benzoyl caprolactam)] | – | – | – | No such enhancement | 14% | 37% | 52% | 71%
